Data published in ChEMBL document CHEMBL3046441, “Importance of physicochemical properties for the design of new pesticides” (J Agric Food Chem, 2011).

Tests used:
[1] = target: T1, Nicotinic acetylcholine receptor alpha8 subunit (Periplaneta americana) (UniProt H6TY12); assay: Neuroblocking activity in Periplaneta americana (American cockroach) nicotinic acetylcholine receptor in abdominal fifth and sixth ganglia nerve assessed as neuroblocking concentration by neurophysiological test
T1 sequence (whole entry): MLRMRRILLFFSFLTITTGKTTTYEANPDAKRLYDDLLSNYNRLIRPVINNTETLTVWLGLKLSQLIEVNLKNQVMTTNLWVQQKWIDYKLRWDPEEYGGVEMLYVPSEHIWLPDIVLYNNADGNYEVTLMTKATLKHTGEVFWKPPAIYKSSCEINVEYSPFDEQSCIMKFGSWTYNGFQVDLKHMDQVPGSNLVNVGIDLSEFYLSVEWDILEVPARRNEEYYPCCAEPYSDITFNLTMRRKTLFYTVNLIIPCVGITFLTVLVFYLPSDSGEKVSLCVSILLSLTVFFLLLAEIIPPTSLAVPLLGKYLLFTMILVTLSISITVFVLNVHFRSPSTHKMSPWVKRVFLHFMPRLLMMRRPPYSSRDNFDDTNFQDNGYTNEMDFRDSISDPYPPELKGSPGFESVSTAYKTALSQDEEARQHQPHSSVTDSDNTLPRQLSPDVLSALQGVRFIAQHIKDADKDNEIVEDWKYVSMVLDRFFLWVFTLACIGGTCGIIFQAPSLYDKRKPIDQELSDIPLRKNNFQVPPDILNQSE

Periplaneta americana = assay: Toxic effect in Periplaneta americana (American cockroach) assessed as paralyzed insects after 24 hr of abdomen compound injection by insecticidal assay; type: functional
[2] = Dissociation constant, pKa of the compound at pH 7.3; type: physicochemical
[3] = Hydrophobicity, log P of the compound in octanol-water by shaking-flask method; type: physicochemical
[4] = Apparent hydrophobicity, log D of the compound in Octanol-buffer; type: physicochemical; details: for logD: octanol/buffer; for logD(app): octanol/water

O=[N+]([O-])/C=C1\NCCN1Cc1ccc(Cl)nc1
log(1/BC) [1]: 5.02 | log(1/MLD) (Periplaneta americana): 10.19

O=[N+]([O-])/N=C1\NCCCN1Cc1ccc(Cl)nc1
log(1/BC) [1]: 5.35 | log(1/MLD) (Periplaneta americana): 10.12

O=[N+]([O-])/C=C1\SCCN1Cc1ccc(Cl)nc1
log(1/BC) [1]: 6.19 | log(1/MLD) (Periplaneta americana): 10.37

CN1CCN(Cc2ccc(Cl)nc2)/C1=N/[N+](=O)[O-]
log(1/BC) [1]: 3.81 | log(1/MLD) (Periplaneta americana): 8.62

O=[N+]([O-])/N=c1\ccccn1Cc1ccc(Cl)nc1
log(1/BC) [1]: 5.09 | log(1/MLD) (Periplaneta americana): 9.99

O=[N+]([O-])/N=c1\ccccn1Cc1cnc(Cl)s1
log(1/BC) [1]: 5.75 | log(1/MLD) (Periplaneta americana): 9.74

O=[N+]([O-])/C=C1\CCCN1Cc1ccc(Cl)nc1
log(1/BC) [1]: 6.43 | log(1/MLD) (Periplaneta americana): 10.44

O=[N+]([O-])/C=C1\NCCN1Cc1cnc(Cl)s1
log(1/BC) [1]: 5.73 | log(1/MLD) (Periplaneta americana): 10.24

O=[N+]([O-])/N=C1\SCCN1Cc1cnc(Cl)s1
log(1/BC) [1]: 6 | log(1/MLD) (Periplaneta americana): 8.91

O=[N+]([O-])/C=C1\CCCN1Cc1cnc(Cl)s1
log(1/BC) [1]: 6.31 | log(1/MLD) (Periplaneta americana): 10.06

CN1CCN(Cc2ccc(Cl)nc2)/C1=C/[N+](=O)[O-]
log(1/BC) [1]: 3.84 | log(1/MLD) (Periplaneta americana): 8.07

O=[N+]([O-])/N=c1\[nH]ccn1Cc1cnc(Cl)s1
log(1/BC) [1]: 4.61 | log(1/MLD) (Periplaneta americana): 8.82

O=[N+]([O-])/N=c1\sccn1Cc1cnc(Cl)s1
log(1/BC) [1]: 5.79 | log(1/MLD) (Periplaneta americana): 8.85

COc1ccc(CCN(C)CCCC(C#N)(c2ccc(OC)c(OC)c2)C(C)C)cc1OC (stereo not given)
pKa [2]: 1.36

O=[N+]([O-])/N=c1\sccn1Cc1ccc(Cl)nc1
log(1/BC) [1]: 5.68 | log(1/MLD) (Periplaneta americana): 10.25

CCCC(=O)Nc1ccc(OCC(O)CNC(C)C)c(C(C)=O)c1 (stereo not given) [ACEBUTOLOL]
pKa [2]: 2.11

CC(=O)Nc1ccc(O)cc1 [ACETAMINOPHEN]
pKa [2]: 0

C=CCc1ccccc1OCC(O)CNC(C)C (stereo not given) [ALPRENOLOL]
logP [3]: 2.89 | logD [4]: 1.35

Cc1c(N(C)C)c(=O)n(-c2ccccc2)n1C [AMINOPYRINE]
pKa [2]: 0

Cc1cc(=O)n(-c2ccccc2)n1C [ANTIPYRINE]
pKa [2]: 0

CCNc1nc(Cl)nc(NC(C)C)n1 [ATRAZINE]
logD [4]: 2.61

CC(C)N1C(=O)c2ccccc2NS1(=O)=O [BENTAZON]
logP [3]: 2.8

CCOP(=S)(NC(C)CC)Oc1cc(C)ccc1[N+](=O)[O-] (stereo not given) [BUTAMIFOS]
pKa [2]: 0 | logD [4]: 4.62

O=C(N[C@H](CO)[C@H](O)c1ccc([N+](=O)[O-])cc1)C(Cl)Cl [CHLORAMPHENICOL]
pKa [2]: 0

Cc1cc(C)cc(C(=O)N(NC(=O)c2ccc3c(c2C)CCCO3)C(C)(C)C)c1 [CHROMAFENOZIDE]
logD [4]: 2.7

Clc1cccc(Cl)c1N=C1NCCN1 [CLONIDINE]
pKa [2]: 0.75 | logD [4]: 0.93

C[C@]12C[C@H](O)[C@H]3[C@@H](CCC4=CC(=O)CC[C@@]43C)[C@@H]1CC[C@@H]2C(=O)CO [CORTICOSTERONE]
pKa [2]: 0 | logD [4]: 1.94

O=c1ccc2ccccc2o1 [COUMARIN]
pKa [2]: 0

O=[N+]([O-])Nc1nccn1Cc1ccc(Cl)nc1 [DEHYDROIMIDACLOPRID]
log(1/BC) [1]: 4.31 | log(1/MLD) (Periplaneta americana): 8.72

C[C@@H]1C[C@H]2[C@@H]3CCC4=CC(=O)C=C[C@]4(C)[C@@]3(F)[C@@H](O)C[C@]2(C)[C@@]1(O)C(=O)CO [DEXAMETHASONE]
pKa [2]: 0 | logD [4]: 2.01

COc1ccc([C@@H]2Sc3ccccc3N(CCN(C)C)C(=O)[C@@H]2OC(C)=O)cc1 [DILTIAZEM]
pKa [2]: 0.76 | logD [4]: 2.29

CCOP(=S)(OCC)Oc1cc(C)nc(C(C)C)n1 [DIMPYLATE]
logD [4]: 3.3

COP(=S)(OC)Oc1ccc([N+](=O)[O-])c(C)c1 [FENITROTHION]
pKa [2]: 0 | logD [4]: 3.3

CCC(C)c1ccccc1OC(=O)NC (stereo not given) [FENOBUCARB]
pKa [2]: 0 | logD [4]: 2.78

COP(=S)(OC)Oc1ccc(SC)c(C)c1 [FENTHION]
pKa [2]: 0 | logD [4]: 4.09

CC(C)(C)N(NC(=O)c1ccc(Cl)cc1)C(=O)c1ccccc1 [HALOFENOZIDE]
pKa [2]: 0 | logD [4]: 3.22

C[C@]12CCC(=O)C=C1CC[C@@H]1[C@@H]2[C@@H](O)C[C@@]2(C)[C@H]1CC[C@]2(O)C(=O)CO [HYDROCORTISONE]
pKa [2]: 0 | logD [4]: 1.61

CC(C)Cc1ccc(C(C)C(=O)O)cc1 (stereo not given) [IBUPROFEN]
logD [4]: 1.54

O=[N+]([O-])/N=C1\NCCN1Cc1ccc(Cl)nc1 [IMIDACLOPRID]
log(1/BC) [1]: 5.64 | log(1/MLD) (Periplaneta americana): 10.15

O=[N+]([O-])NC1=NCCN1Cc1ccc(Cl)nc1 [IMIDACLOPRID]
pKa [2]: 0 | logD [4]: 0.59

O=[N+]([O-])/N=C1\NCCN1Cc1cnc(Cl)s1 [IMIDACLOTHIZ]
log(1/BC) [1]: 5.97 | log(1/MLD) (Periplaneta americana): 9.62

CC(C)c1cc(NC(=O)N(C)C)no1 [ISOURON]
logP [3]: 1.98

CC(C(=O)O)c1cccc(C(=O)c2ccccc2)c1 (stereo not given) [KETOPROFEN]
logD [4]: 1.1

CC(CCc1ccccc1)NCC(O)c1ccc(O)c(C(N)=O)c1 (stereo not given) [LABETALOL]
pKa [2]: 2.1 | logD [4]: 1.68

COc1nn(CSP(=S)(OC)OC)c(=O)s1 [METHIDATHION]
pKa [2]: 0 | logD [4]: 2.5

COc1cccc(C(=O)NN(C(=O)c2cc(C)cc(C)c2)C(C)(C)C)c1C [METHOXYFENOZIDE]
pKa [2]: 0 | logD [4]: 3.7

COCCc1ccc(OCC(O)CNC(C)C)cc1 (stereo not given) [METOPROLOL]
logD [4]: 0.24

CC(C)(C)NCC(O)COc1cccc2c1CC(O)C(O)C2 (stereo not given) [NADOLOL]
pKa [2]: 2.37 | logD [4]: -0.88

CCn1cc(C(=O)O)c(=O)c2cc(F)c(N3CCNCC3)cc21 [NORFLOXACIN]
pKa [2]: 2.08 | logD(app) [4]: -2.42

C=CCOc1ccccc1OCC(O)CNC(C)C (stereo not given) [OXPRENOLOL]
pKa [2]: 2.3 | logD [4]: 0.56

CCOC(=O)C(SP(=S)(OC)OC)c1ccccc1 (stereo not given) [PHENTHOATE]
logP [3]: 3.96 | pKa [2]: 0 | logD [4]: 3.96

O=C1NC(=O)C(c2ccccc2)(c2ccccc2)N1 [PHENYTOIN]
logD [4]: 2.26

CC(C)NCC(O)COc1cccc2[nH]ccc12 (stereo not given) [PINDOLOL]
pKa [2]: 2.24 | logD [4]: 0.25

CN1CCN(CC(=O)N2c3ccccc3C(=O)Nc3cccnc32)CC1 [PIRENZEPINE]
pKa [2]: 0.7 | logD(app) [4]: -0.37

CN1C(C(=O)Nc2ccccn2)=C(O)c2ccccc2S1(=O)=O [PIROXICAM]
logD [4]: 0.49

CC(=O)Nc1ccc(OCC(O)CNC(C)C)cc1 (stereo not given) [PRACTOLOL]
pKa [2]: 2.1 | logD [4]: -0.62

C[C@]12C=CC(=O)C=C1CC[C@@H]1[C@@H]2[C@@H](O)C[C@@]2(C)[C@H]1CC[C@]2(O)C(=O)CO [PREDNISOLONE]
pKa [2]: 0

CNC(=C[N+](=O)[O-])NCCSCc1ccc(CN(C)C)o1 [RANITIDINE]
pKa [2]: 0.88 | logD(app) [4]: -0.32

CC(C)(C)N(NC(=O)c1ccccc1)C(=O)c1ccccc1 [RH-5849]
pKa [2]: 0 | logD [4]: 2.45

O=C(O)c1ccccc1O [SALICYLIC ACID]
logD [4]: -0.63

COP1(=S)OCc2ccccc2O1 (stereo not given) [SALITHION]
pKa [2]: 0 | logD [4]: 2.67

CCc1ccc(C(=O)NN(C(=O)c2cc(C)cc(C)c2)C(C)(C)C)cc1 [TEBUFENOZIDE]
pKa [2]: 0

Cc1c(F)c(F)c(COC(=O)[C@@H]2[C@H](/C=C(\Cl)C(F)(F)F)C2(C)C)c(F)c1F [TEFLUTHRIN]
logP [3]: 6

C[C@]12CC[C@H]3[C@@H](CCC4=CC(=O)CC[C@@]43C)[C@@H]1CC[C@@H]2O [TESTOSTERONE]
pKa [2]: 0

CCN(CC)C(=O)SCc1ccc(Cl)cc1 [THIOBENCARB]
pKa [2]: 0 | logD [4]: 3.42

CCCN(CCC)c1c([N+](=O)[O-])cc(C(F)(F)F)cc1[N+](=O)[O-] [TRIFLURALIN]
logP [3]: 5.07
